Values of other authors, collected in patent US4987122A, “Peptide compounds and medical method of use thereof” (Nycomed AS, priority 1986, dated 1991).
[ ]: non-standard residue; d: D form. pGlu = O=C1CC[C@@H](C(=O)O)N1

Experiments:
granulopoiesis = details: as reported in the European patent application
[1] = subjected to freezing and thawing; reversed by treatment with mercaptoethanol

## pyroGlu-Asp-Asp-Cys-LysOH ([pGlu]DDCK-OH; SMILES NCCCC[C@H](NC(=O)[C@H](CS)NC(=O)[C@H](CC(=O)O)NC(=O)[C@H](CC(=O)O)NC(=O)[C@@H]1CCC(=O)N1)C(=O)O) [synthetic compound with the structure postulated for the natural granulopoiesis factor]
granulopoiesis
  activity of the synthetic compound: inactive

## pyroGlu-Glu-Asp-Cys-LysOH ([pGlu]EDCK-OH; SMILES NCCCC[C@H](NC(=O)[C@H](CS)NC(=O)[C@H](CC(=O)O)NC(=O)[C@H](CCC(=O)O)NC(=O)[C@@H]1CCC(=O)N1)C(=O)O)
[1]
  activity after freezing and thawing: stimulatory activity
